Reference: US7585893B2, “Anti-cancer composition comprising DMXAA or related compound” (Cancer Research Technology Limited, priority 2002, dated 2009)
“And” between values parts separate entries of the source, which are not always exact repeats. Identical values can stand only once. Like-named read-outs stand apart in the source and are kept apart here.

Experiments:
[1] = system: tumour; conditions: Zhao et al, cited from earlier work
[2] = system: tumour blood flow; conditions: Phase I clinical trials; well-tolerated doses; cited from earlier work
[3] = system: HT29 human colon cancer cells; assay: HT29 human colon carcinoma xenograft, oral dosing (Experiment 3); format: in vivo; conditions: HT29 xenograft in nude mice; 28 mg/kg oral, or 28 + 15 + 15 mg/kg at 0, 4, 8 h
Method: Nude mice were implanted with 5×10^6 HT29 human colon cancer cells, subcutaneously. […] Tumours were then measured using callipers every 2-3 days and volumes calculated. Comparative tumour growth curves are plotted with respect to those at the onset of treatment (relative tumour volume).

[4] = oral; Zhao et al; cited from earlier work
[5] = system: Colon 38 tumour; assay: Colon 38 tumour growth delay, oral DMXAA (Experiments I and II); format: in vivo, C57B1/6 mice; conditions: for mice cured completely: 30+15+15 mg/kg orally at 0, 4, 8 h
Method: C57B1/6 mice from the Animal Resource Unit, University of Auckland, were bred and housed under conditions of constant temperature and humidity, with sterile bedding and food, according to institutional ethical guidelines. All mice were aged between 8 and 12 weeks.
DMXAA was synthesized as the sodium salt (Rewcastle et al (1990) Journal of National Cancer Institute 82:528-529). DMXAA sodium salt was dissolved in sterile water and was administered orally by gavage.
Colon 38 tumour fragments (˜1 mm^3) were implanted subcutaneously (s.c.) in the left flank of anaesthetized (sodium pentobarbital, 81 mg/kg) mice. The experiments were initiated when tumours were approximately 3-4 mm (approximately 20 mg mass) in diameter. Tumour-bearing mice were treated with drugs according to the administration schedule described before, and the tumours measured using calipers, three times weekly thereafter. Tumour volumes were calculated as O.52a^2b, where a and b are the minor and major axes of the tumour, respectively. For graphical representation the arithmetic means were calculated for each time point, counting cured tumours as zero volume.
Two groups of 5 mice were implanted with tumours. The treatment group received DMXAA according to the schedule shown, the control group received no DMXAA. The individual mice in each group were not marked, and so any one line of the spreadsheet data shown in Table 1 could be from any individual mouse of a particular group.
The data were normalised, to enable plotting of the average tumour growth beginning from a relative size of 1 (see FIG. 1).
This example was performed using four groups of mice. Group 1 (control, n=5) received no treatment. Group 2 (n=5) received two 15 mg/kg doses of DMXAA. Group 3 (n=5) received a single 30 mg/kg dose of DMXAA. Group 4 (n=6) received three doses of DMXAA in concentrations of 30+15+15 mg/kg. In this experiment tumours were all 14 mm^3 at the start of the experiment. Data were normalised by division by 14 to give size relative to initial size.
The tumour growth delay experiment was conducted using 2 drug regimes: untreated controls (n=5) and oral DMXAA (n=5) administered in 3 doses. The first dose (30 mg/kg), was administered at t=0 hours followed by two lower doses each of 15 mg/kg at t=4 hours and t=8 hours respectively. Tumour size was measured thrice weekly and the results normalised as described above. The results are shown in Table 1 (raw data), Table 2 (normalised data) and FIG. 1, Expt. I (plotted as a graph).
In this example, the tumour growth delay experiment was conducted using 4 drug regimes: untreated controls (Group 1, n=5); two 15 mg/kg doses of DMXAA separated by a 4 hour interval (Group 2, n=5); a single 30 mg/kg dose of DMXAA (Group 3, n=5); three doses of DMXAA in concentrations of 30+15+15 mg/kg administered at t=0, 4 and 8 hours respectively (Group 4, n=6). The 30 mg/kg dose is the maximum tolerated single dose Zhao et al (Cancer Chemother Pharmacol. 2002 January; 49(1):20-6). Tumour size was measured thrice weekly and the results normalised as described above. The results are shown in Table 3 (raw data), Table 4 (normalised data) and FIG. 1, Expt. II (plotted as a graph).

In the case of `Cc1ccc2c(=O)c3cccc(CC(=O)O)c3oc2c1C` [DMXAA, 5,6-dimethylxanthenone-4-acetic acid], the cures ([1]; intraperitoneal administration) is given as 40%, the cures ([1]; single dose orally administered) is given as “no cures” and the “tumour blood flow (dynamic MRI)” value [2] is given as “significant reduction in tumour blood flow”. For the same compound, the “antitumour activity by the oral route” value [3] was “induces antitumour activity”, the “maximum tolerated single dose” value [4] was 30 mg/kg and the “side effects of multiple dose strategy” value ([5]; 30+15+15 mg/kg orally) was “without the serious side effects”. For the same compound, the mice cured completely ([5]; Expt I, within 24 days) was 4/5, the Tumor volume ([5]; Expt I, 30+15+15 mg/kg orally at 4 h intervals, 0 day, individual mice, 15 mg/kg) was 6.3 mm^3 and 18.8 mm^3 (2×) and 14.1 mm^3 (2×) and the Tumor volume ([5]; Expt II, 30 mg/kg orally single dose, 0 day) was 14.0 mm^3. The “tumour growth over time-course” value ([5]; Expt II, 2×15 mg/kg oral doses, 4 h interval) was “tumours continued to grow”, the Tumor volume ([5]; Expt II, 15 − 15 mg/kg orally, 4 h interval, 0 day) was 14.0 mm^3 and the mice cured completely ([5]; Expt II, within 17 days) was 6/6. The Tumor volume ([5]; Expt II, 30 − 16 − 15 mg/kg orally, 0 day) was 14.0 mm^3, the Tumor volume ([5]; Expt II, 30 − 16 − 15 mg/kg orally, 17 day) was 0.0 mm^3 and the “Normalised tumour size (relative to initial size)” value ([5]; Expt II, oral 30 mg/kg single dose, day 0) was 1. The “Normalised tumour size (relative to initial size)” value ([5]; Expt II, oral 15 − 15 mg/kg, day 0) was 1, the “Normalised tumour size (relative to initial size)” value ([5]; Expt II, oral 30 − 15 − 15 mg/kg, day 0) was 1 and the “Normalised tumour size (relative to initial size)” value ([5]; Expt II, oral 30 − 15 − 15 mg/kg, day 17) was 0. The “tumour growth over time-course” value ([5]; Expt II, single 30 mg/kg oral dose) was “tumours continued to grow”.
